Legend:
Assay type in all cases: biochemical
human NRK = assay: enzymatic conversion by purified NRK1 and NMNAT1 with ATP, HPLC: NRK step; conditions: 2 mM S-NR, 6 mM ATP, 5 μM NRK1 and 5 μM NMNAT1, RT; relative to NR
Method: (§1) FIGS. 4A-4D: HPLC analysis of enzymatic synthesis of S-NAD^+ by the purified NRK1 and NMNAT1 as measured by UV absorbance at 260 nm. 2 mM S—NR was incubated with 6 mM ATP and 5 μM NRK1 and 5 μM NMNAT1 at RT for 0 h (FIG. 4A), 0.5 h (FIG. 4B), 1 h (FIG. 4C), and 4 h (FIG. 4D), followed by HPLC analysis.
(§2) Purified S—NR (0.5 mg in the form of bromide salt) was incubated with 6 mM ATP, 5 uM of purified NRK1 and NMNAT1 at the final concentration of 2 mM at room temperature for overnight in the reaction buffer (50 mM Tris, 100 mM NaCl, 12 mM MgCl2, 1 mM DTT, and pH 7.5). After centrifugation at 4,000 g for 5 minutes, supernatants were analyzed by HPLC and the fraction containing S-NAD^+ (0.68 mg, 70%) were pooled and confirmed by both NMR and mass spectrometry. All analysis and purifications on HPLC were performed with a semipreparative C18 Kinetex column (5 μm, 100 Å, 150×10.0 mm, from Phenomenex Inc, Torrance, CA) using the following method, mobile phase A: 0.1% formic acid (aq); mobile phase B: 0.1% formic acid in methanol; flow rate: 2.0 ml/min; 0-2 min: 0-4% B, 2-4 min: 4-10% B; 4-6 min: 10-20% B; 6-9 min: 20% B; 9-12 min: 20-50% B; and 12-14 min: 50-0% B.
(§3) Human NRK1 and NMNAT1 were then expressed and purified from Escherichia coli (FIG. 1). In vitro biosynthesis of NAD^+ and S-NAD^+ from NR and S—NR, respectively, were carried out using purified NRK1 and NMNAT1. […]

human CD38 [1] = target: T1, human CD38 (Homo sapiens, UniProt P28907, N100D/N164A/N209D/N219D); assay: continuous fluorescence-based CD38 cyclase activity assay with NGD+ as substrate (cGDPR formation)
T1 construct: His6 (N, cleaved yes); TEV protease cleavage site (N, cleaved yes); made in house; host or cells: Expi293 cells, secreted, transient transfection (pFuse vector)
T1 sequence (P28907 45-300 N100D/N164A/N209D/N219D): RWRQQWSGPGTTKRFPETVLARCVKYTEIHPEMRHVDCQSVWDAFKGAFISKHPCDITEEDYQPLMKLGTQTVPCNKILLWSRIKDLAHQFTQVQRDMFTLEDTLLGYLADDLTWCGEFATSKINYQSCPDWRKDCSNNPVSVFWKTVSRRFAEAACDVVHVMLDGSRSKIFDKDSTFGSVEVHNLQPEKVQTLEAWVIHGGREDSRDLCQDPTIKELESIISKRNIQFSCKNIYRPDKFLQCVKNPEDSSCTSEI
Method: Recombinant human CD38 (8 nM) was incubated with 50 μM NGD^+ in the presence of varied concentrations of S-NAD^+. CD38 cyclase activities were monitored on the basis of the formation of fluorescent cGDPR as measured at 410 nm.
NGD^+ (Sigma-Aldrich, MO) was used as a substrate to determine ADP-ribosyl cyclase activity of purified CD38, because cyclic GDP-ribose (cGDPR) product is characterized by distinctive UV absorbance at 295 nm and fluorescence emission at 410 nm (excitation at 300 nm).^5 To characterize kinetic parameters, reactions were initiated by additions of recombinant CD38 (8.3 nM final) into assay wells with various concentrations of NGD^+ in 20 mM MES, pH 6.5, followed by monitoring the reactions through fluorescence at 410 nm (excitation at 300 nm) to determine initial reaction rates. Inhibition activities of S-NAD^+ were determined by carried out enzymatic formation of cyclic GDP-ribose in the presence of S-NAD^+. […] All reactions were carried out in black 96-well plates and the resulting fluorescence was measured using a BioTek Synergy H1 Hybrid Multi-Mode Microplate Reader (BioTek, VT) in the kinetic mode. The Km of NGD^+ for CD38 was calculated by fitting data with Michaelis-Menten function implemented in GraphPad Prism (La Jolla, CA). […]

[2] = target: T2, Leuconostoc mesenteroides glucose-6-phosphate dehydrogenase (G6PDH) (Leuconostoc mesenteroides, UniProt P11411); assay: substrate activity with redox enzyme G6PDH (UV 340 nm and HPLC); conditions: 0.5 mM compound, 5 mM D-glucose 6-phosphate; for HPLC analysis of reduction by L. mesenteroides G6PDH: 10 unit/ml G6PDH, 30 minutes, peaks confirmed by mass spectrometry
T2 construct: purchased Sigma-Aldrich (St. Louis, MO)
T2 sequence (P11411 whole entry): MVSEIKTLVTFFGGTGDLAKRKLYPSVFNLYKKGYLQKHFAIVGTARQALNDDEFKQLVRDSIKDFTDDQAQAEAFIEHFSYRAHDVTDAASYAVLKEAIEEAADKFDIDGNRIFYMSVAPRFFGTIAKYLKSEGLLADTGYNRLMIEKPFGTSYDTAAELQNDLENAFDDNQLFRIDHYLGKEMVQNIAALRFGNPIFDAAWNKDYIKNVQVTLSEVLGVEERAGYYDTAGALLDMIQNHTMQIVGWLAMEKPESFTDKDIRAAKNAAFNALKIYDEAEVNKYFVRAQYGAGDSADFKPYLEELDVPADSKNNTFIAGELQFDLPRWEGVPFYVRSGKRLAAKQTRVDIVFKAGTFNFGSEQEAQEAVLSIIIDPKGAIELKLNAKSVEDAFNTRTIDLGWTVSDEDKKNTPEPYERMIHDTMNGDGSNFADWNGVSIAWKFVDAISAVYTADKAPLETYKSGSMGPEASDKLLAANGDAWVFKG
Method: (§4) Bovine glutamate dehydrogenase (GDH) and Leuconostoc mesenteroides glucose-6-phosphate dehydrogenase (G6PDH) were purchased from Sigma-Aldrich (St. Louis, MO) and used for determining the substrate activities of NAD^+ and S-NAD^+. To examine substrate activity with bovine GDH, 0.1 mM NAD^+ or S-NAD^+ was incubated with 1 mM L-glutamate and 0.1 unit/ml GDH in buffer containing 2 mM DTT, 50 mM Tris, pH 7.5 for 15 minutes at room temperature. To determine substrate activity with G6PDH, 0.5 mM NAD^+ or S-NAD^+ was incubated with 5 mM D-glucose 6-phosphate and 0.01 unit/ml G6PDH in buffer containing 5 mM MgCl2, 50 mM Tris, pH 7.5 for 15 minutes at room temperature. Formation of NADH and S-NADH were monitored by UV absorbance at 340 nm under kinetic mode using a NanoDrop 2000C spectrophotometer (Thermo Scientific, MA).
(§5) To examine the bovine GDH-catalyzed reactions, 0.5 mM NAD^+ or S-NAD^+ was incubated with 2 mM L-glutamate and 20 unit/ml GDH in buffer containing 2 mM DTT, 50 mM Tris, pH 7.5 for 30 minutes at room temperature, followed by HPLC analysis with detection of UV absorbance at 340 nm. To evaluate the L. mesenteroides G6PDH-catalyzed reactions, 0.5 mM NAD^+ or S-NAD^+ was incubated with 5 mM D-glucose 6-phosphate and 10 unit/ml G6PDH in buffer containing 5 mM MgCl2, 50 mM Tris, pH 7.5 for 30 minutes at room temperature, followed by HPLC analysis with detection of UV absorbance at 340 nm. The HPLC method used for analysis of reactions by GDH and G6PDH was the same as described above.

human CD38 [3] = target: T1, human CD38; assay: substrate activity with human CD38, overnight incubation, HPLC analysis; conditions: 1 mM compound, 13.4 nM recombinant human CD38, 50 mM MES pH 6.5, room temperature overnight
Method: FIGS. 15A-15D: Activity of NAD^+ and S-NAD^+ for human CD38. HPLC analysis of substrate activities of NAD^+ (FIG. 15A-15B) and S-NAD^+ (FIG. 15C-15D) with human CD38 as measured by UV absorbance at 260 nm. 1 mM NAD^+ or S-NAD^+ was incubated without and with CD38 at RT overnight, followed by HPLC analysis.
1 mM S-NAD^+ and NAD^+ in 50 mM MES, pH 6.5 were incubated with 13.4 nM recombinant human CD38 for overnight at room temperature, followed HPLC analysis of the reaction mixtures. HPLC analysis was performed with a semipreparative C18 Kinetex column (5 μm, 100 Å, 150×10.0 mm, from Phenomenex Inc, Torrance, CA) using following method: mobile phase A: 0.1% formic acid (aq); mobile phase B: 0.1% formic acid in methanol; flow rate: 2.0 ml/min; 0-2 min: 0-4% B, 2-4 min: 4-10% B; 4-6 min: 10-20% B; 6-9 min: 20% B; 9-12 min: 20-50% B; and 12-14 min: 50-0% B.

[4] = target: T3, Bovine glutamate dehydrogenase (GDH) (Bos taurus, UniProt P00366); assay: substrate activity with redox enzyme GDH (UV 340 nm and HPLC); conditions: for HPLC analysis of reduction by bovine GDH: 0.5 mM compound, 2 mM L-glutamate, 20 unit/ml GDH, 30 minutes, peaks confirmed by mass spectrometry
T3 construct: purchased Sigma-Aldrich (St. Louis, MO)
T3 sequence (P00366 58-558): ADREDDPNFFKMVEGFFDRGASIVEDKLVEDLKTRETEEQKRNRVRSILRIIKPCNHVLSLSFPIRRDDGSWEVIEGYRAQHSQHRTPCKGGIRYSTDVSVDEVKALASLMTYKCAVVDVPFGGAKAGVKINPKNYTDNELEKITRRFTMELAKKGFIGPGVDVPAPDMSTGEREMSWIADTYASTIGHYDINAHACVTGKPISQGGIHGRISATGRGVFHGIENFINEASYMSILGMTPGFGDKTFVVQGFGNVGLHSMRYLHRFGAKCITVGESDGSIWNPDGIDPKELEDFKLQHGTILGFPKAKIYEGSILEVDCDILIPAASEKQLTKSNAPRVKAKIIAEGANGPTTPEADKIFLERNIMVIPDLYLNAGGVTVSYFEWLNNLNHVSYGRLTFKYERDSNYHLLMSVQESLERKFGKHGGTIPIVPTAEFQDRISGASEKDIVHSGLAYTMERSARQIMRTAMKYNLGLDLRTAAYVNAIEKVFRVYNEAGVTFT
Method: as §4, §5

human NMNAT = target: T4, human NMNAT (Homo sapiens, UniProt Q9HAN9); assay: enzymatic conversion by purified NRK1 and NMNAT1 with ATP, HPLC: NMNAT step; conditions: 6 mM ATP, 5 μM NRK1 and 5 μM NMNAT1, RT; relative to NMN
T4 construct: made in house; host or cells: E. coli BL21 (DE3), pET-28a(+)
T4 sequence (Q9HAN9 with tags, fused parts or gaps): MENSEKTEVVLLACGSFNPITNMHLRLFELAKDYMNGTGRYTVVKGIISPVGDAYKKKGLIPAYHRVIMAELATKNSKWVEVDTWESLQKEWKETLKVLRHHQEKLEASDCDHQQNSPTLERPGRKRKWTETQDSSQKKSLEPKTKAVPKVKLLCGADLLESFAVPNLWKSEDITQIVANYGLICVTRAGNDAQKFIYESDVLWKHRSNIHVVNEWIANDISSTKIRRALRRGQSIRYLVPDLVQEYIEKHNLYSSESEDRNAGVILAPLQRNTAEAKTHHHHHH
Method: as §1, §2, §3

SMILES | HPLC analysis of reduction by L. mesenteroides G6PDH [2] | fate of compound after overnight reaction with CD38 (HPLC) (human CD38 [3]) | HPLC analysis of reduction by bovine GDH [4] | further results
NC(=O)c1ccc[n+]([C@@H]2S[C@H](CO)[C@@H](O)[C@H]2O)c1.[Br-] [S—NR, 3-carbamoyl-1-((2R,3R,4S,5R)-3,4-dihydroxy-5-(hydroxymethyl)tetrahydrothiophen-2-yl)pyridin-1-ium] | – | – | – | effect of sulfur substitution on substrate activity for human NRK (human NRK): no effect
NC(=O)c1ccc[n+]([C@@H]2O[C@H](COP(=O)([O-])OP(=O)(O)OC[C@H]3O[C@@H](n4cnc5c(=O)[nH]c(N)nc54)[C@H](O)[C@@H]3O)[C@@H](O)[C@H]2O)c1 [NGD^+, nicotinamide guanine dinucleotide, reference compound] | – | – | – | Km (human CD38 [1]; 8.3 nM recombinant CD38, 20 mM MES pH 6.5, fluorescence at 410 nm): 8.5 ± 0.6 µM
NC(=O)c1ccc[n+]([C@@H]2S[C@H](COP(=O)(O)OP(=O)([O-])OC[C@H]3O[C@@H](n4cnc5c(N)ncnc54)[C@H](O)[C@@H]3O)[C@@H](O)[C@H]2O)c1 (stereo in doubt) [S-NAD^+, 4′-thioribose NAD+] | enzyme-dependent formation of NADH and S-NADH peaks | still remained unchanged | enzyme-dependent formation of NADH and S-NADH peaks | reduction by L. mesenteroides G6PDH monitored by UV absorbance at 340 nm ([2]; 0.01 unit/ml G6PDH, 15 minutes, room temperature): characteristic increases of UV absorbance at 340 nm; reduction by bovine GDH monitored by UV absorbance at 340 nm ([4]; 0.1 mM compound, 1 mM L-glutamate, 0.1 unit/ml GDH, 15 minutes, room temperature): characteristic increases of UV absorbance at 340 nm; slow-onset inhibition of CD38 (human CD38 [1]; direct competition assays with extended incubation or preincubating CD38 with S-NAD+): no slow-onset inhibition was observed
NC(=O)c1ccc[n+]([C@@H]2O[C@H](COP(=O)([O-])OP(=O)(O)OC[C@H]3O[C@@H](n4cnc5c(N)ncnc54)[C@H](O)[C@@H]3O)[C@@H](O)[C@H]2O)c1 [NAD^+, Nicotinamide adenine dinucleotide, reference compound] | enzyme-dependent formation of NADH and S-NADH peaks | completely consumed | enzyme-dependent formation of NADH and S-NADH peaks | –
NC(=O)c1ccc[n+](C2SC(COP(=O)([O-])O)C(O)C2O)c1 (stereo not drawn) [S-NMN, 4′-thioribose nicotinamide mononucleotide] | – | – | – | effect of sulfur substitution on substrate activity for human NMNAT (human NMNAT): no effect

From patent US11834470B2, “4-thioribose NAD analogues and methods of synthesizing and using the same” (University of Southern California, priority 2018, dated 2023)
